Assay results reported in US11632953B2, “Method for controlling hematophagous or sap-feeding arthropods” (Board of Supervisors of Louisiana State University and …, priority 2016, dated 2023).
Converted amounts (≈) assume the structure as drawn. “Also recorded” adds a separate entry of the source.

What was measured:
Aphis gossypii = experiment: aphid feeding on treated cotton leaves, electrophenegraph technique; type: in vivo; settings: barium chloride at 300 micromolar
Procedure: FIGS. 14(A) and (B) depict measurements of aphid (Aphis gossypi) feeding on cotton leaves, as measured through the electrophenegraph technique; on control leaves and on leaves treated with the Kir inhibitor barium, respectively.
In aphids, a specific Kir channel blocker (barium chloride at 300 micromolar) was coated onto leaf tissue, and the feeding behavior of the adult aphid was analyzed through the classical electrophenegraph technique.

AnKir1 = AnKir1 (Anopheles gambiae, UniProt A0A075M2J8); experiment: whole-cell patch clamp electrophysiology; type: cell-based
AnKir1, sequence (A0A075M2J8 1-555): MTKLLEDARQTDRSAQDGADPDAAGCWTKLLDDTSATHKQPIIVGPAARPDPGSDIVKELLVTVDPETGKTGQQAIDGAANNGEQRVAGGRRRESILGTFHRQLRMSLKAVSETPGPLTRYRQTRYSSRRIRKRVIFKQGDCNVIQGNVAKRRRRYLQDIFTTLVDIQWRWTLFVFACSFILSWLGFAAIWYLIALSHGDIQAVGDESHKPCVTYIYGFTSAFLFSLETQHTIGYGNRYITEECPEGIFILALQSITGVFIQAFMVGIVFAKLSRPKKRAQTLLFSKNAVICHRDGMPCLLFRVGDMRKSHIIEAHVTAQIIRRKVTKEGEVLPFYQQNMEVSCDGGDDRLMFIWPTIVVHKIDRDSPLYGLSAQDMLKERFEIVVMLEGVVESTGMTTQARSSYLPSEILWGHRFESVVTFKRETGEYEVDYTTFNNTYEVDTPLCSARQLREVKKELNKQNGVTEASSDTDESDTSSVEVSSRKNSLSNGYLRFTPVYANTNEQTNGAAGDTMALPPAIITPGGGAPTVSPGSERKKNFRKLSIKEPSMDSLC
Procedure: Patch electrodes were pulled from silanized 1.5 mm outer diameter borosilicate microhematocrit tubes using a P-1000 Flaming/Brown micropipette puller (Sutter Instrument, Novato Calif., USA). Electrode resistance ranged from 2-4 MΩ. Whole-cell currents were recorded under voltage-clamp conditions using an Axopatch 200B amplifier (Molecular Devices, Sunnyvale, Calif.). Electrical connections to the amplifier used Ag/AgCl wires and 3 M KCl/agar bridges. Electrophysiological data were collected at 5 kHz and filtered at 1 kHz. Data acquisition and analysis were performed using pClamp 9.2 software (Axon Instruments).
Transiently transfected HEK-293T cells expressing AnKir1 were voltage-clamped in the whole-cell configuration of the patch clamp technique. The extracellular bath solution contained (in mM): 135 NaCl, 5 KCl, 2 CaCl2), 1 MgCl2, 5 glucose, 10 HEPES free acid, pH 7.4, 290 mOsm/kg H2O. The pipette solution contained (in mM): 135 KCl, 2 MgCl2, 1 EGTA, 10 HEPES free acid, 2 Na2ATP (Roche, Indianapolis, Ind.), pH 7.3, 275 mOsm. Cells were voltage clamped at −75 mV, stepped to −120 mV for 200 msec, and then ramped to 120 mV at a rate of 2.4 mV/msec. Concentration-response curves (CRCs) were constructed by measuring the effects of increasing doses of inhibitors on AnKir1 currents at −120 mV. All recordings were made at room temperature (20-23° C.).

An. gambiae [1] = experiment: blood meal processing, abdominal diameter; type: in vivo, Anopheles gambiae; settings: topical, ED30 dose of VU041 after engorgement
Procedure: Blood meal processing studies were performed with similar methods, with the exception that An. gambiae were blood-fed on anesthetized mice. All methods were carried out in accordance with Vanderbilt Institutional Animal Care and Use Committee approval. Upon completion of blood feeding, female mosquitoes with fully distended abdomens were selected, and 200 nL of compound at a non-lethal concentration (1 μg/mg) was applied directly to the abdomen. Any mosquito that died during the 24 h observation period was excluded from the analysis. Images of the abdomens were acquired at 0, 2, 5, 8, and 24 h through the dorsal cuticle; abdomens were measured at the widest point. Images were captured using bright-field illumination on a Nikon 90i light microscope (Nikon Corp., Tokyo, Japan) connected to a Photometrics CoolSNAP HQ2 high-sensitivity monochrome CCD camera (Roper Scientific, Ottobrunn, Germany). Digital images were acquired using Nikon Advanced Research NIS-Elements software. Mean abdominal diameters were compared using one-way ANOVA with a Tukey's post-hoc analysis (Prism 6, Graphpad Software, La Jolla, Calif.).

An. gambiae [2] = experiment: mosquito fecundity, eggs laid; type: in vivo, Anopheles gambiae; settings: 72 h post blood feeding; VU041 ~1 μg/mg, VU937 ~10 μg/mg
Procedure: Briefly, adult female mosquitoes were given access to an anesthetized mouse for 60 min. […] After treatment, individual female mosquitoes were transferred to Drosophila vials (Fisher Scientific, Pittsburgh, OA) containing 2 mL of water. The total number of eggs was counted 72 hours after each mosquito was transferred into a vial. Any mosquitoes that died during this 72-hour period were excluded from the analysis. All assays were performed in an environmental chamber that was maintained at 27° C. and 75% relative humidity; mosquitoes were given access to 10% sucrose solution ad libitum. At least 25 female mosquitoes were used per replicate for each treatment group; each treatment was repeated on three separate broods, giving a total number of individuals from 75-113 for each group.

[3] = solubility limit in feeding solution
[4] = whole-cell patch clamp, HEK-293T cells

Row | SMILES | feeding phases (egestion, salivation, ingestion) (Aphis gossypii) | Hill coefficient value (AnKir1; whole-cell patch clamp) | IC50 (AnKir1; [4]) [µM] | abdominal diameter over 24 h after blood feeding (An. gambiae [1]) | median number of eggs laid per mosquito (An. gambiae [2]) | solubility ([3]; 5% (wt/vol) sucrose solution, water) [µM] | activity less than VU041 (AnKir1; patch clamp) [fold] | IC50 (AnKir1; whole-cell patch clamp) [µM] | solubility limit ([3]; 5% sucrose solution) [µM]
1 | O=C(Cn1nc(C(F)(F)F)c2c1CCCC2)N1CCCc2ccccc21 [VU041, 1-(3,4-dihydroquinolin-1(2H)-yl)-2-(3-(trifluoromethyl)-4,5,6,7-tetrahydro-1H-indazol-1-yl)ethan-1-one] | No salivation was observed; also recorded: essentially completely inhibited egestion, salivation, and ingestion | 1.3 | 0.496 | did not thereafter change much | significantly lower median number of eggs per mosquito | 200 (≈ 72.7 µg/mL) | – | – | –
2 | O=C(Cn1nc(C(F)(F)F)c2c1CCCC2)NC1CCC1 [VU937] | fed normally; also recorded: did not affect feeding | – | 29.7 | decreased significantly over 24 h | – | – | 60 | 29.7 | 700 (≈ 211 µg/mL)
